The text below walks through data of patent US11878978B1, “Pyrrolo[2,3-c]quinoline compounds as CK2 inhibitors” (KING FAISAL UNIVERSITY, priority 2023, dated 2024).

One test has as its system H1299 (lung). Nature of the test: In vitro cytotoxic activity assay (MTT), H1299. Format: cell-based. The conditions noted are these: Homo sapiens, NCI-H1299; H1299 (lung) cells, exposed for 96 hours; read-out: IC50, concentration of compound eliciting a 50% inhibition of cell proliferation. As to the method: (§1) Compounds 1-12 were screened for their in vitro cytotoxic activity utilizing a 3-(4,5-dimethyl-thiazol-2-yl)-2,5-diphenyltetrazolium bromide (MTT) assay against selected cancer human cell lines consisting of PC3 (prostate), HCT116 (colon), A375 (melanoma), H1299 (lung), MIAPaCa-2 (pancreas), HL60 (leukemia), MCF7 (breast), MDA-MB-231 (breast) (T. Mosmann, J. Immunol. Meth., 1983, 65, 55-63). The cells were cultured at 37° C. in RMPI1640 medium supplemented with 10% fetal bovine serum, 50 IU/mL penicillin, and 50 μg/mL streptomycin in a 5% CO2 incubator. All cells were sub-cultured 3 times/week by trypsinisation. Viable cells were seeded and allowed to adhere for 12 h before a test drug was added in 96-well plates at an initial density of 1.0×10^5 cells/mL. Tumour cell lines were separately exposed to various concentrations of the tested compounds followed by incubation at a temperature of 37° C. during 96 h inside a medium of fresh RMPI 1640. Cells were subsequently incubated at 37° C. using MTT at 0.5 mg/mL during 4 h. After removal of supernatant, formazan crystals were dissolved in isopropanol and the optical density was measured at 570 nm. CX-4945 was used as a positive control.

The subject of a further test is PC3 (prostate). Description: In vitro cytotoxic activity assay (MTT), PC3. Format: cell-based. Conditions: Homo sapiens, Prostate cell; PC3 (prostate) cells, exposed for 96 hours; read-out: IC50, concentration of compound eliciting a 50% inhibition of cell proliferation. As to the method: as §1
A further test deals with MIAPaCa-2 (pancreas). Description: In vitro cytotoxic activity assay (MTT), MIAPaCa-2. In kind it is cell-based. The conditions noted are these: Homo sapiens, MIA PaCa-2; MIAPaCa-2 (pancreas) cells, exposed for 96 hours; read-out: IC50, concentration of compound eliciting a 50% inhibition of cell proliferation. Here is the method:
as §1

The test system of another test is MCF7 (breast). Description: In vitro cytotoxic activity assay (MTT), MCF7. Format: cell-based. Conditions: Homo sapiens; MCF7 (breast) cells, exposed for 96 hours; read-out: IC50, concentration of compound eliciting a 50% inhibition of cell proliferation. As to the method: as §1
In the next test the target is T1, recombinant human CK2 (Homo sapiens, UniProt P68400).
T1 construct: purchased Millipore
T1 sequence (P68400 whole entry): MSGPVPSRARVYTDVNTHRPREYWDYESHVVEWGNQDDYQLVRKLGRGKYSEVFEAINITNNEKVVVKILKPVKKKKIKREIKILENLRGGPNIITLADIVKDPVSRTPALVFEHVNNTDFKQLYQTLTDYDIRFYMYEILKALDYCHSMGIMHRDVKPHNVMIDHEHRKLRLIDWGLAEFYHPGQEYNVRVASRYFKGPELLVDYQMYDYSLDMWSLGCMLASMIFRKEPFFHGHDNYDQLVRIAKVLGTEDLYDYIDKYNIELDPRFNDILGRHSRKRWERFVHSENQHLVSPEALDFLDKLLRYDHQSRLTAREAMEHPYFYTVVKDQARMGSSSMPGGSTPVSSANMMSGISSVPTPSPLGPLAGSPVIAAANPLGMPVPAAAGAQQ
T1 sequence (P67870 whole entry partner): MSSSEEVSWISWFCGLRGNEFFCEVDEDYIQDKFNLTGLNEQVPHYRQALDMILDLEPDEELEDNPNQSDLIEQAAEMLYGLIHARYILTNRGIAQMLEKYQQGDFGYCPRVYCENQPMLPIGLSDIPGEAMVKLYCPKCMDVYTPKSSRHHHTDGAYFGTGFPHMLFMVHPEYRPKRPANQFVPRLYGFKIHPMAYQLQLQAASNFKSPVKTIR
Nature of the test: CK2 Kinase Assay (33P-ATP, substrate peptide RRRDDDSDDD). In kind it is biochemical. Conditions: final ATP concentration 15 μM, 10 min at 30° C., eight concentrations; read-out: protein kinase CK2 IC50. As to the method:
CK2 Kinase Assay was conducted using the protocol as described in Pierre F. et al; J. Med. Chem. 2011, 54, 635-654. The tested compounds in aqueous solution were added at a volume of 10 μL to a reaction mixture comprising 10 μL of assay dilution buffer (ADB; 20 mM MOPS, pH 7.2, 25 mM β-glycerol phosphate, 5 mM EGTA, 1 mM sodium orthovanadate, and 1 mM dithiothreitol), 10 μL of substrate peptide (RRRDDDSDDD, dissolved in ADB at a concentration of 1 mM), 10 μL of recombinant human CK2 (RROP-holoenzyme, 25 ng dissolved in ADB; Millipore). Reactions were initiated by the addition of 10 μL of ATP solution (90% 75 mMMgCl2, 75 μM ATP (final ATP concentration:15 μM) dissolved in ADB; 10% [γ-33P] ATP (stock 1 mCi/100 μL; 3000 Ci/mmol (Perkin-Elmer) and maintained for 10 min at 30° C. The reactions were quenched with 100 μL of 0.75% phosphoric acid and then transferred to and filtered through a phosphor cellulose filter plate (Millipore). After washing each well five times with 0.75% phosphoric acid, the plate was dried under vacuum for 5 min and, following the addition of 15 μL of scintillation fluid to each well, the residual radioactivity was measured using a Wallac luminescence counter. The IC50 values were derived from eight concentrations of test inhibitors.

Another test concerns MDA-MB-231 (breast). Description: In vitro cytotoxic activity assay (MTT), MDA-MB-231. The conditions noted are these: Homo sapiens; MDA-MB-231 (breast) cells, exposed for 96 hours; read-out: IC50, concentration of compound eliciting a 50% inhibition of cell proliferation. Format: cell-based. As to the method:
as §1

In another test the test system is A375 (melanoma). Description: In vitro cytotoxic activity assay (MTT), A375. In kind it is cell-based. The conditions noted are these: Homo sapiens, A-375; A375 (melanoma) cells, exposed for 96 hours; read-out: IC50, concentration of compound eliciting a 50% inhibition of cell proliferation. Here is the method:
as §1

For another test, the system named is HL60 (leukemia). Nature of the test: In vitro cytotoxic activity assay (MTT), HL60. In kind it is cell-based. The conditions noted are these: Homo sapiens, HL-60; HL60 (leukemia) cells, exposed for 96 hours; read-out: IC50, concentration of compound eliciting a 50% inhibition of cell proliferation. As to the method: as §1
The next test has as its system HCT116 (colon). Nature of the test: In vitro cytotoxic activity assay (MTT), HCT116. In kind it is cell-based. Conditions: Homo sapiens, HCT-116; HCT116 (colon) cells, exposed for 96 hours; read-out: IC50, concentration of compound eliciting a 50% inhibition of cell proliferation. As to the method:
as §1

Take `O=C(O)c1ccc2c(c1)nc(Nc1cccc(Cl)c1)c1[nH]cc(C(=O)O)c12` [Compound 1, 4-((3-chlorophenyl)amino)-3H-pyrrolo[2,3-c]quinoline-1,7-dicarboxylic acid]: the IC50 was determined as 1900 nM with H1299 (lung); 1300 nM in the test on PC3 (prostate); 1400 nM in the test on MIAPaCa-2 (pancreas); 6200 nM with MCF7 (breast); 35 nM at recombinant human CK2; 4600 nM in the test on MDA-MB-231 (breast). In addition, the IC50 in the test with A375 (melanoma) worked out at 2200 nM; with HL60 (leukemia) it was 3100 nM; with HCT116 (colon), 1700 nM.
